Assay results reported in patent US20250034138A1, “Compounds and Compositions as C-Kit Kinase Inhibitors” (Enanta Pharmaceuticals, Inc., priority 2023, published 2025).
Where two headings read alike, the source gives them in different places.

Assays:
[1] = system: M-07e cells which endogenously express human c-KIT; assay: M-07e Cellular Assay (SCF-mediated cell proliferation, CellTiter Glo); assay type: cell-based; details: read-out: M-07e EC50
Method: 2. M-07e Cellular Assay M-07e cells (Creative Bioarray, CSC-CO249) which endogenously express human c-KIT were used to evaluate the effect of compounds on stem cell factor (SCF)-mediated cell proliferation. M-07e cells were cultured in growth media (RPMI+10% FBS+1% penicillin/streptomycin+10 ng/mL GM-CSF) at 5E5-1.5E6 cells/mL, replenishing media every 3-4 days. 1.5E4 cells were seeded per well in 384 well tissue culture treated plates in 20 μL assay media (RPMI+10% FBS+1% penicillin/streptomycin) without growth factor stimulation and incubated at 37° C. in a CO2 humidity-controlled incubator. Twenty-four hours later, three-fold serially diluted test compounds in media containing SCF (at the previously determined EC90) were added to the plated M-07e cells and incubated for an additional 72 hours. Cell viability was determined by adding 25 μL CellTiter Glo (Promega) to the cells and the luminescence was measured using a Perkin Elmer Envision plate reader. The EC50 was determined using GraphPad Prism. […] EC50 ranges are reported as follows: […]

[2] = molecular target: T1, Recombinant human c-KIT kinase (Homo sapiens, UniProt P10721); assay: c-KIT Kinase Chemiluminescence Assay (ADP-Glo); assay type: biochemical; details: recombinant human c-KIT 30-40 nM, ATP 50 μM, polyEY substrate, ADP-Glo luminescence
T1 construct: purchased Promega V4498
From the text: Staurosporine (AM-2282) and Imatinib (STI571) were purchased from Selleck Chemicals LLC (Houston, TX). The c-KIT reference compound THB001 (EP-053504) was synthesized by Enanta Pharmaceuticals, Inc. (Watertown, MA). The c-KIT Kinase Enzyme System (V4498) and ADP-Glo™ Kinase Assay kit (V6930) were purchased from Promega (Madison, WI). DMSO (D2650) was purchased from Sigma-Aldrich (Burlington, MA). ECHO-650 acoustic liquid handling system (67492212) and 384-well LDV ECHO source plates (LP-0200) were purchased from Labcyte, Inc (San Jose, CA). Envision Multimode Plate Reader (2104/464466) and ProxiPlate-384 Plus White 384-shallow well microplates (6008280) were purchased from PerkinElmer (Waltham, MA).
1. c-KIT Kinase Chemiluminescence Assay:
IC50 determination. Test compounds were dispersed into a 384-well low volume while ProxiPlate microplate from a DMSO solution using an ECHO 650 acoustic dispenser to generate a 11-point, 3.162-fold dilution, concentration curve starting at 10 μM in duplicate. Kinase Reaction: The kinase assay was based on the recommended protocol by c-KIT Kinase Enzyme System from Promega. Recombinant human c-KIT kinase in 3 μL of assay buffer (40 mM Tris pH 7.5, 20 mM MgCl2, 0.1 mg/mL BSA and 50 μM DTT) was added to the test or high control wells and 3 μL of assay buffer was added to the low control wells. The microplate was centrifuged at 800 rotations per minute (rpm) for 60 s and incubated at room temperature (RT) for 30 min. Next, 2 μL of buffered ATP and polyEY substrate solution was added to all wells. The microplate was centrifuged at 800 rpm for 60 s and incubated at RT for 2 h. The final assay contained c-KIT (30-40 nM), ATP (50 μM), polyEY substrate (0.2 μg/μL), test compounds (0-10 μM) and DMSO (1.7%) in 5 μL assay buffer. ADP detection with ADP-Glo™ Kinase Assay: After the kinase reaction incubation, 5 μL of ADP-Glo™ reagent was added to all wells. The microplate was centrifuged at 800 rpm for 60 s and incubated at RT for 40 min. Ten microliter (10 μL) of Kinase Detection Reagent (Luciferin-Luciferase system) was then added to all wells. The microplate was centrifuged at 800 rpm for 60 s and incubated at RT for 60 min. Kinase activity was measured as increase in luminescence at RT in an Envision plate reader equipped with 560 nm filters and operating in endpoint mode.
Data Analysis: Endpoint chemiluminescence from high and low control wells were used to calculate normalized c-KIT activity at various concentrations of test compounds. The normalized activities were fitted to inhibitor-versus-normalized response fit in GraphPad Prism 7 to determine half-maximal inhibitory concentration (IC50) and hill coefficient values (H).
c-KIT activity (%)=100/(1+I^H/IC50^H). Where I is the inhibitor concentration and H is the Hill coefficient. IC50 ranges are reported as follows: A<100 nM; B 0.1-1 μM; C>1 μM.

[3] = SCF (EC90)-stimulated M-07e cell proliferation, 72 hours, CellTiter Glo

T1 sequence (P10721 26-976): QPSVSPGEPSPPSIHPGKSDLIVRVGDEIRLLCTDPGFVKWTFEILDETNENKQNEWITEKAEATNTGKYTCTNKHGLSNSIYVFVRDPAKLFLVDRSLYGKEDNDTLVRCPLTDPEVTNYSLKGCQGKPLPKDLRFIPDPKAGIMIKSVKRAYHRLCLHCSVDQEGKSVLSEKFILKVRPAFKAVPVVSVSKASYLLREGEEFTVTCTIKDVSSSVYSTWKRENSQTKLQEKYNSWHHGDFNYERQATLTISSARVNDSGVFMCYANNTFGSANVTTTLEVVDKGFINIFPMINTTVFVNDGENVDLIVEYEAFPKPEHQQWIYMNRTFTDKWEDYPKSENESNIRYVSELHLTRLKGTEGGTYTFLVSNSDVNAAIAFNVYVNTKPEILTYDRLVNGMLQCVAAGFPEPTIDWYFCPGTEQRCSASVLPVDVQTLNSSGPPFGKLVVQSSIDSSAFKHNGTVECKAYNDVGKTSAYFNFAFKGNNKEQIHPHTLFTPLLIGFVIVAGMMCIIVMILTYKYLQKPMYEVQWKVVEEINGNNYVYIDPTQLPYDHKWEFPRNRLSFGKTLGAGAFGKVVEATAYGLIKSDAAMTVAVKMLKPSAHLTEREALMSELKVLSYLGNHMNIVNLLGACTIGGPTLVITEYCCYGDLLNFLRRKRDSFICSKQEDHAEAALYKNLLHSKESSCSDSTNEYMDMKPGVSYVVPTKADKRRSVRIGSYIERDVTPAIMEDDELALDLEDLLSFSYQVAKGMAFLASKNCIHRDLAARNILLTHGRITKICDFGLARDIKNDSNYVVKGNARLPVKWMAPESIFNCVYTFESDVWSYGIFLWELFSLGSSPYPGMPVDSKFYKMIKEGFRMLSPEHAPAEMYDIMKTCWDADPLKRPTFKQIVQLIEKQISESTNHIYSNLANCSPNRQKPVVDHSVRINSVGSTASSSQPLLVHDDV

IC50 [2] | SMILES | EC50 [1, 3] | EC50 ([1]; M-07e, 72 h)
< 0.1 µM | Cc1ccc(-c2nnc(C3CC(F)(F)C3)s2)cc1NC(=O)c1cnc2ccccn12 [Example 1-1] | < 0.1 µM | –
< 0.1 µM | Cc1ccc(-c2nnc([C@H]3C[C@@H]3F)s2)cc1NC(=O)c1cnc2ccccn12 [Example 1] | < 0.1 µM | –
0.1 to 1 µM | Cc1ccc(-c2nnn(C3CC3)n2)cc1NC(=O)c1cnc2ccccn12 [Example 2] | < 0.1 µM | –
< 0.1 µM | Cc1ccc(-c2nnn(C3CC(F)(F)C3)n2)cc1NC(=O)c1cnc2ccccn12 [Example 3] | < 0.1 µM | –
< 0.1 µM | Cc1ccc(-c2nc(C3CC(F)(F)C3)cs2)cc1NC(=O)c1cnc2ccccn12 [Example 4] | 0.1 to 1 µM | –
> 1 µM | Cc1ccc(-c2nnc(C3CC3)n2C2CC2)cc1NC(=O)c1cnc2ccccn12 [Example 5] | > 1 µM | –
> 1 µM | Cc1ccc(-c2nc(C3CC3)nn2C)cc1NC(=O)c1cnc2ccccn12 [Example 6-1] | 0.1 to 1 µM | –
< 0.1 µM | Cc1ccc(-c2nc3ccc(F)cn3n2)cc1NC(=O)c1cnc2ccccn12 [Example 6-2] | < 0.1 µM | –
< 0.1 µM | Cc1ccc(-c2nc3ccc(Cl)cn3n2)cc1NC(=O)c1cnc2ccccn12 [Example 6-3] | < 0.1 µM | –
0.1 to 1 µM | Cc1ccc(-c2cn3c(n2)CCCC3)cc1NC(=O)c1cnc2ccccn12 [Example 6-4] | < 0.1 µM | –
0.1 to 1 µM | Cc1ccc(-c2cn3c(n2)CCC3)cc1NC(=O)c1cnc2ccccn12 [Example 6-5] | 0.1 to 1 µM | –
< 0.1 µM | Cc1ccc(-c2nc3cc(F)ccn3n2)cc1NC(=O)c1cnc2ccccn12 [Example 6-6] | < 0.1 µM | –
> 1 µM | Cc1ccc(-c2nc3ccccn3n2)cc1NC(=O)c1cnc2ccccn12 [Example 6-7] | – | –
0.1 to 1 µM | Cc1ccc(-c2nc3n(n2)[C@@H](c2ccccc2)C[C@H]3F)cc1NC(=O)c1cnc2ccccn12 [Example 6-8] | 0.1 to 1 µM | –
< 0.1 µM | Cc1ccc(-c2nc3ccc(C(F)(F)F)cn3n2)cc1NC(=O)c1cnc2ccccn12 [Example 6-9] | < 0.1 µM | –
0.1 to 1 µM | Cc1ccc(-c2nc3cccc(C(F)(F)F)n3n2)cc1NC(=O)c1cnc2ccccn12 [Example 6-10] | 0.1 to 1 µM | –
> 1 µM | Cc1ccc(-c2nnc3n2CCCC3)cc1NC(=O)c1cnc2ccccn12 [Example 6-11] | – | –
0.1 to 1 µM | Cc1ccc(-c2nc3n(n2)CCCC3)cc1NC(=O)c1cnc2ccccn12 [Example 6-12] | 0.1 to 1 µM | –
< 0.1 µM | Cc1ccc(-c2nc3n(n2)CCN(C(=O)OC(C)(C)C)C3)cc1NC(=O)c1cnc2ccccn12 [Example 6-13] | 0.1 to 1 µM | –
< 0.1 µM | Cc1ccc(-c2nc3cc(C(F)(F)F)ccn3n2)cc1NC(=O)c1cnc2ccccn12 [Example 6-14] | < 0.1 µM | –
< 0.1 µM | Cc1ccc(-c2nc3cc(Cl)ccn3n2)cc1NC(=O)c1cnc2ccccn12 [Example 6-15] | 0.1 to 1 µM | –
0.1 to 1 µM | Cc1ccc(-c2nc3n(n2)CCNC3)cc1NC(=O)c1cnc2ccccn12 [Example 6-16] | > 1 µM | –
0.1 to 1 µM | Cc1ccc(-c2nc3n(n2)CCN(C(=O)[C@H]2C[C@@H]2F)C3)cc1NC(=O)c1cnc2ccccn12 [Example 6-18] | 0.1 to 1 µM | –

IC50 [2] | SMILES | EC50 [1, 3] | EC50 ([1]; M-07e, 72 h)
0.1 to 1 µM | Cc1ccc(-c2nc3n(n2)CCN(C(=O)C2CC(F)(F)C2)C3)cc1NC(=O)c1cnc2ccccn12 [Example 6-19] | – | –
> 1 µM | Cc1ccc(-c2nc3n(n2)CCN(C(=O)[C@H]2[C@@H]4CC(F)(F)C[C@@H]42)C3)cc1NC(=O)c1cnc2ccccn12 [Example 6-20] | – | –
< 0.1 µM | Cc1ccc(-c2nc3n(n2)C[C@H](C(F)(F)F)CC3)cc1NC(=O)c1cnc2ccccn12 [Example 6-21] | < 0.1 µM | –
< 0.1 µM | Cc1ccc(-c2nc3cc(C4CC4)ccn3n2)cc1NC(=O)c1cnc2ccccn12 [Example 6-23] | < 0.1 µM | –
< 0.1 µM | Cc1ccc(-c2nc3ccc(C4CC4)cn3n2)cc1NC(=O)c1cnc2ccccn12 [Example 6-24] | < 0.1 µM | –
0.1 to 1 µM | Cc1ccc(-c2nc(C3CC3)n(C)n2)cc1NC(=O)c1cnc2ccccn12 [Example 6] | 0.1 to 1 µM | –
< 0.1 µM | Cc1ccc(-c2cn(C3CC(F)(F)C3)nn2)cc1NC(=O)c1cnc2ccccn12 [Example 7] | < 0.1 µM | –
< 0.1 µM | Cc1ccc(-n2nnc(C3CC(F)(F)C3)n2)cc1NC(=O)c1cnc2ccccn12 [Example 8] | < 0.1 µM | –
0.1 to 1 µM | Cc1ccc(-n2nnc(-c3ccc(F)cc3)n2)cc1NC(=O)c1cnc2ccccn12 [Example 9-1] | 0.1 to 1 µM | –
0.1 to 1 µM | Cc1ccc(-n2nnc(-c3cccc(F)c3)n2)cc1NC(=O)c1cnc2ccccn12 [Example 9-2] | 0.1 to 1 µM | –
< 0.1 µM | Cc1ccc(-c2coc(C3CC(F)(F)C3)n2)cc1NC(=O)c1cnc2ccccn12 [Example 10] | < 0.1 µM | –
0.1 to 1 µM | Cc1ccc(-c2coc([C@H]3C[C@@H]3F)n2)cc1NC(=O)c1cnc2ccccn12 [Example 11-1] | < 0.1 µM | –
< 0.1 µM | Cc1ccc(-c2nc3cc(F)ccc3o2)cc1NC(=O)c1cnc2ccccn12 [Example 11-2] | < 0.1 µM | –
0.1 to 1 µM | Cc1ccc(-c2nc3ccccc3o2)cc1NC(=O)c1cnc2ccccn12 [Example 11-3] | < 0.1 µM | –
< 0.1 µM | Cc1ccc(-c2nc3ccccc3s2)cc1NC(=O)c1cnc2ccccn12 [Example 11-4] | 0.1 to 1 µM | –
0.1 to 1 µM | Cc1ccc(-c2nc3ccc(F)cc3o2)cc1NC(=O)c1cnc2ccccn12 [Example 11-5] | 0.1 to 1 µM | –
< 0.1 µM | Cc1ccc(-c2nc3ccccc3[nH]2)cc1NC(=O)c1cnc2ccccn12 [Example 11-6] | < 0.1 µM | –
> 1 µM | Cc1ccc(-c2nc3ccccc3n2C)cc1NC(=O)c1cnc2ccccn12 [Example 11-7] | 0.1 to 1 µM | –
< 0.1 µM | Cc1ccc(-c2nc3ccc(F)cc3[nH]2)cc1NC(=O)c1cnc2ccccn12 [Example 11-8] | < 0.1 µM | –
< 0.1 µM | Cc1ccc(-c2nc3ccc(C(F)(F)F)cc3[nH]2)cc1NC(=O)c1cnc2ccccn12 [Example 11-9] | < 0.1 µM | –
> 1 µM | Cc1ccc(-c2ncc(C3CC(F)(F)C3)n2COCC[Si](C)(C)C)cc1NC(=O)c1cnc2ccccn12 [Example 11-11] | – | –
0.1 to 1 µM | Cc1ccc(-c2c[nH]c(C3CC(F)(F)C3)n2)cc1NC(=O)c1cnc2ccccn12 [Example 11] | 0.1 to 1 µM | –

SMILES | IC50 [2] | EC50 [1, 3] | EC50 ([1]; M-07e, 72 h)
Cc1ccc(-c2cnn(C3CC(F)(F)C3)n2)cc1NC(=O)c1cnc2ccccn12 [Example 11-10] | < 0.1 µM | < 0.1 µM | –
Cc1ccc(-n2cc(C3CC(F)(F)C3)nn2)cc1NC(=O)c1cnc2ccccn12 [Example 11-12] | < 0.1 µM | < 0.1 µM | –
Cc1ccc(-n2ncc3ccccc32)cc1NC(=O)c1cnc2ccccn12 [Example 11-13] | > 1 µM | – | 0.1 to 1 µM
